Our source for the EC50 values is US20200016136A1 (VIIV HEALTHCARE UK (NO. 5) LIMITED, priority 2017, published 2020).

This experiment has as its system NL-RLuc virus (recombinant NL4-3 HIV with Renilla Luciferase gene). Description: Inhibition of HIV replication (NL-RLuc virus in MT-2 cells, luciferase readout). In kind it is cell-based, Human immunodeficiency virus (HIV). Conditions: MT2, 120 h. An outline of the steps:
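MT-2 cells infected with NL4-3-derived virus carrying Renilla luciferase in place of part of nef, grown 5 days with serial compound dilutions in RPMI 1640/10% FBS. Virus growth read as luciferase expression. EC50 from median effect equation, at least 2 experiments.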
On to `Cc1nc(C)c([C@H](OC(C)(C)C)C(=O)O)c(N2CCC(C)(C)CC2)c1-c1ccc2c(c1)CCN(c1ccnc(N3CCC(F)(F)CC3)n1)C2` [Example 76, (S)-2-(tert-Butoxy)-2-(5-(2-(2-(4,4-difluoropiperidin-1-yl)pyrimidin-4-yl)-1,2,3,4-tetrahydroisoquinolin-6-yl)-4-(4,4-dimethylpiperidin-1-yl)-2,6-dimethylpyridin-3-yl)acetic Acid], for which the EC50 (as a rule, the concentration at which the effect is half-maximal) is 3 nM. For `Cc1nc(C)c([C@H](OC(C)(C)C)C(=O)O)c(N2CCC(C)(C)CC2)c1-c1ccc2c(c1)CCN(c1ncnc(N3CCOCC3)c1C)C2` [Example 77, (S)-2-(tert-Butoxy)-2-(4-(4,4-dimethylpiperidin-1-yl)-2,6-dimethyl-5-(2-(5-methyl-6-morpholinopyrimidin-4-yl)-1,2,3,4-tetrahydroisoquinolin-6-yl)pyridin-3-yl)acetic Acid] the value was 0.6 nM; for `CCOc1ncnc(N2CCc3cc(-c4c(C)nc(C)c([C@H](OC(C)(C)C)C(=O)O)c4N4CCC(C)(C)CC4)ccc3C2)c1C` [Example 78, (S)-2-(tert-Butoxy)-2-(4-(4,4-dimethylpiperidin-1-yl)-5-(2-(6-ethoxy-5-methylpyrimidin-4-yl)-1,2,3,4-tetrahydroisoquinolin-6-yl)-2,6-dimethylpyridin-3-yl)acetic Acid], 5 nM; for `COc1cccc(-c2cc(N3CCc4cc(-c5c(C)nc(C)c([C@H](OC(C)(C)C)C(=O)O)c5N5CCC(C)(C)CC5)ccc4C3)ncn2)c1` [Example 79, (S)-2-(tert-Butoxy)-2-(4-(4,4-dimethylpiperidin-1-yl)-5-(2-(6-(3-methoxyphenyl)pyrimidin-4-yl)-1,2,3,4-tetrahydroisoquinolin-6-yl)-2,6-dimethylpyridin-3-yl)acetic Acid], 11 nM. For `Cc1nc(C)c([C@H](OC(C)(C)C)C(=O)O)c(N2CCC(C)(C)CC2)c1-c1ccc2c(c1)CCN(c1nccc(O)n1)C2` [Example 80, (S)-2-(tert-Butoxy)-2-(4-(4,4-dimethylpiperidin-1-yl)-5-(2-(4-hydroxypyrimidin-2-yl)-1,2,3,4-tetrahydroisoquinolin-6-yl)-2,6-dimethylpyridin-3-yl)acetic Acid] the value was 380 nM. For `Cc1nc(C)c([C@H](OC(C)(C)C)C(=O)O)c(N2CCC(C)(C)CC2)c1-c1ccc2c(c1)CCN(c1nccc(N3CCC(CCO)CC3)n1)C2` [Example 81, (S)-2-(tert-Butoxy)-2-(4-(4,4-dimethylpiperidin-1-yl)-5-(2-(4-(4-(2-hydroxyethyl)piperidin-1-yl)pyrimidin-2-yl)-1,2,3,4-tetrahydroisoquinolin-6-yl)-2,6-dimethylpyridin-3-yl)acetic Acid] the value was 4 nM; for `Cc1nc(C)c([C@H](OC(C)(C)C)C(=O)O)c(N2CCC(C)(C)CC2)c1-c1ccc2c(c1)CCN(c1cc(-c3cccc(Cl)c3)ncn1)C2` [Example 82, (S)-2-(tert-Butoxy)-2-(5-(2-(6-(3-chlorophenyl)pyrimidin-4-yl)-1,2,3,4-tetrahydroisoquinolin-6-yl)-4-(4,4-dimethylpiperidin-1-yl)-2,6-dimethylpyridin-3-yl)acetic Acid], 15 nM; for `Cc1nc(C)c([C@H](OC(C)(C)C)C(=O)O)c(N2CCC(C)(C)CC2)c1-c1ccc2c(c1)CCN(c1cc(N3CCOCC3)ccn1)C2` [Example 83, (S)-2-(tert-Butoxy)-2-(4-(4,4-dimethylpiperidin-1-yl)-2,6-dimethyl-5-(2-(4-morpholinopyridin-2-yl)-1,2,3,4-tetrahydroisoquinolin-6-yl)pyridin-3-yl)acetic Acid], 5 nM. Take `Cc1nc(C)c([C@H](OC(C)(C)C)C(=O)O)c(N2CCC(C)(C)CC2)c1-c1ccc2c(c1)CCN(c1nc(N3CCOCC3)nn3cccc13)C2` [Example 84, (S)-2-(tert-Butoxy)-2-(4-(4,4-dimethylpiperidin-1-yl)-2,6-dimethyl-5-(2-(2-morpholinopyrrolo[2,1-f][1,2,4]triazin-4-yl)-1,2,3,4-tetrahydroisoquinolin-6-yl)pyridin-3-yl)acetic Acid]: the EC50 was 6 nM. For `Cc1nc(C)c([C@H](OC(C)(C)C)C(=O)O)c(N2CCC(C)(C)CC2)c1-c1ccc2c(c1)CCN(c1ccnc(N3CCN(CCO)CC3)n1)C2` [Example 85, (S)-2-(tert-Butoxy)-2-(4-(4,4-dimethylpiperidin-1-yl)-5-(2-(2-(4-(2-hydroxyethyl)piperazin-1-yl)pyrimidin-4-yl)-1,2,3,4-tetrahydroisoquinolin-6-yl)-2,6-dimethylpyridin-3-yl)acetic Acid] the value was 39 nM.

Consider `Cc1nc(C)c([C@H](OC(C)(C)C)C(=O)O)c(N2CCC(C)(C)CC2)c1-c1ccc2c(c1)CCN(c1cc(N3CCOCC3)nc(N3CCOCC3)n1)C2` [Example 86, (S)-2-(tert-Butoxy)-2-(4-(4,4-dimethylpiperidin-1-yl)-5-(2-(2,6-dimorpholinopyrimidin-4-yl)-1,2,3,4-tetrahydroisoquinolin-6-yl)-2,6-dimethylpyridin-3-yl)acetic Acid], for which the EC50 was 4 nM. Consider `Cc1nc(C)c([C@H](OC(C)(C)C)C(=O)O)c(N2CCC(C)(C)CC2)c1-c1ccc2c(c1)CCN(c1cc(N3CCOCC3)cc(F)n1)C2` [Example 87, (S)-2-(tert-Butoxy)-2-(4-(4,4-dimethylpiperidin-1-yl)-5-(2-(6-fluoro-4-morpholinopyridin-2-yl)-1,2,3,4-tetrahydroisoquinolin-6-yl)-2,6-dimethylpyridin-3-yl)acetic Acid], for which the EC50 worked out at 5 nM. For `Cc1ccccc1-c1cccc(N2CCc3cc(-c4c(C)nc(C)c([C@H](OC(C)(C)C)C(=O)O)c4N4CCC(C)(C)CC4)ccc3C2)n1` [Example 88, (S)-2-(tert-Butoxy)-2-(4-(4,4-dimethylpiperidin-1-yl)-2,6-dimethyl-5-(2-(6-(o-tolyl)pyridin-2-yl)-1,2,3,4-tetrahydroisoquinolin-6-yl)pyridin-3-yl)acetic Acid] the value was 25 nM; for `Cc1cccc(N2CCc3cc(-c4c(C)nc(C)c([C@H](OC(C)(C)C)C(=O)O)c4N4CCC(C)(C)CC4)ccc3C2)n1` [Example 89, (S)-2-(tert-Butoxy)-2-(4-(4,4-dimethylpiperidin-1-yl)-2,6-dimethyl-5-(2-(6-methylpyridin-2-yl)-1,2,3,4-tetrahydroisoquinolin-6-yl)pyridin-3-yl)acetic Acid], 3 nM. For `CCC(C)(C)O[C@H](C(=O)O)c1c(C)nc(C)c(-c2ccc3c(c2)CCN(Cc2ccccc2C)C3)c1N1CCC(C)(C)CC1` [Example 90, (S)-2-(4-(4,4-Dimethylpiperidin-1-yl)-2,6-dimethyl-5-(2-(2-methylbenzyl)-1,2,3,4-tetrahydroisoquinolin-6-yl)pyridin-3-yl)-2-(tert-pentyloxy)acetic Acid] the value was 4 nM; for `Cc1nc(C)c([C@H](OC(C)(C)C)C(=O)O)c(N2CCC(C)(C)CC2)c1-c1ccc2c(c1)CCN(c1cc(N3CCOCC3)c(F)cn1)C2` [Example 91, (S)-2-(tert-Butoxy)-2-(4-(4,4-dimethylpiperidin-1-yl)-5-(2-(5-fluoro-4-morpholinopyridin-2-yl)-1,2,3,4-tetrahydroisoquinolin-6-yl)-2,6-dimethylpyridin-3-yl)acetic Acid], 9 nM; for `CC1(C)CCN(c2c(-c3ccc4c(c3)CCN(c3ncnc5c3oc3ncccc35)C4)cnc(Cl)c2[C@H](OC(C)(C)C)C(=O)O)CC1` [Example 92, (S)-2-(tert-Butoxy)-2-(2-chloro-4-(4,4-dimethylpiperidin-1-yl)-5-(2-(pyrido[3′,2′:4,5]furo[3,2-d]pyrimidin-4-yl)-1,2,3,4-tetrahydroisoquinolin-6-yl)pyridin-3-yl)acetic Acid], 0.6 nM. For the compound `CC1(C)CCN(c2c(-c3ccc4c(c3)CCN(c3nccc(N5CCC(C(C)(C)O)CC5)n3)C4)cnc(Cl)c2[C@H](OC(C)(C)C)C(=O)O)CC1` [Example 93, (S)-2-(tert-Butoxy)-2-(2-chloro-4-(4,4-dimethylpiperidin-1-yl)-5-(2-(4-(4-(2-hydroxypropan-2-yl)piperidin-1-yl)pyrimidin-2-yl)-1,2,3,4-tetrahydroisoquinolin-6-yl)pyridin-3-yl)acetic Acid], the EC50 came to 8 nM. For `Cc1nc(C)c([C@H](OC(C)(C)C)C(=O)O)c(N2CCC(C)(C)CC2)c1-c1ccc2c(c1)CCN(c1cccc(F)n1)C2` [Example 94, (S)-2-(tert-Butoxy)-2-(4-(4,4-dimethylpiperidin-1-yl)-5-(2-(6-fluoropyridin-2-yl)-1,2,3,4-tetrahydroisoquinolin-6-yl)-2,6-dimethylpyridin-3-yl)acetic Acid], the EC50 was found to be 4 nM. For `CC1(C)CCN(c2c(-c3ccc4c(c3)CCN(c3ncnc5c3oc3ccccc35)C4)c(CO)nc(Cl)c2[C@H](OC(C)(C)C)C(=O)O)CC1` [Example 95, (S)-2-(5-(2-(Benzofuro[3,2-d]pyrimidin-4-yl)-1,2,3,4-tetrahydroisoquinolin-6-yl)-2-chloro-4-(4,4-dimethylpiperidin-1-yl)-6-(hydroxymethyl)pyridin-3-yl)-2-(tert-butoxy)acetic acid] the value was 1 nM; for `CC1(C)CCN(Cc2nc(Cl)c([C@H](OC(C)(C)C)C(=O)O)c(N3CCC(C)(C)CC3)c2-c2ccc3c(c2)CCN(c2ncnc4c2oc2ccccc24)C3)CC1` [Example 96, (S)-2-(5-(2-(Benzofuro[3,2-d]pyrimidin-4-yl)-1,2,3,4-tetrahydroisoquinolin-6-yl)-2-chloro-4-(4,4-dimethylpiperidin-1-yl)-6-((4,4-dimethylpiperidin-1-yl)methyl)pyridin-3-yl)-2-(tert-butoxy)acetic Acid], 0.3 nM; for `Cc1cccc(Cl)c1CN1CCc2cc(-c3c(CO)nc(Cl)c([C@H](OC(C)(C)C)C(=O)O)c3N3CCC(C)(C)CC3)ccc2C1` [Example 97, (S)-2-(tert-Butoxy)-2-(2-chloro-5-(2-(2-chloro-6-methylbenzyl)-1,2,3,4-tetrahydroisoquinolin-6-yl)-4-(4,4-dimethylpiperidin-1-yl)-6-(hydroxymethyl)pyridin-3-yl)acetic Acid], 2 nM.
